The results in this text go back to PMC6268855, “New Trifluoromethyl Triazolopyrimidines as Anti-Plasmodiumfalciparum Agents” (Molecules, 2012).

Holding throughout (type): cell-based
The subject of series [1] is Plasmodium falciparum chloroquine-resistant W2 clone. The series can be described thus: anti-HRP2 test on P. falciparum-infected erythrocytes. To be noted: for IC50: Plasmodium falciparum, read-out: IC50 Plasmodium Falciparum Anti-HRP2; for activity class against P. falciparum: class by IC50. As for the experimental part: (§1) Briefly, the parasites were kept as described at 37 °C in human erythrocytes (A^+) in complete medium (RPMI 1640 supplemented with 10% human sera blood group A^+, 2% glutamine, and 7.5% NaHCO3) either in Petri dishes in a candle jar or in 25-cm culture flasks in an environment containing a gas mixture atmosphere (3% O2, 5% CO2 and 91% N2). Before testing, the ring-stage parasites were synchronized by sorbitol; the suspension was adjusted for parasitemia and hematocrit as described below for each test used.
(§2) The effects of compounds against the W2 P. falciparum blood cultures were evaluated through incorporation of ^3H hypoxanthine (Perkin Elmer, Waltham, MA, USA) by the parasites. Alternatively, compound effects were also examined using monoclonal antibodies to a commercially available parasite histidine and alanine-rich protein (HRP2) (MPFM ICLLAB-55A®, MPFG55P ICLLAB®, Immunology Consultants Laboratory Inc. (ICL), Portland, OR, USA), as described previously. The [3H]-hypoxanthine assay was performed with 1% of parasitemia and 1% of hematocrit, and the level of isotope incorporation was read in a beta-counter (Perkin Elmer). The anti-HRP2 test was performed with 0.05% parasitemia and 1.5% hematocrit, and the quantification of protein was determined using a specific read at 450 nm in a spectrophotometer (SpectraMax340PC^384, Molecular Devices, Sunnyvale, CA, USA). Drug activities were expressed by the half-maximal inhibitory dose (IC50) compared to the drug-free controls and estimated using the curve-fitting software Origin 8.0 (OriginLab Corporation, Northampton, MA, USA).

Series [2] relates to human hepatoma cell line (HepG2). To be noted: MTT, 24 h incubation. The procedure: For in vitro cytotoxicity experiments, the cell monolayer was trypsinized, washed with culture medium, distributed in a flat-bottomed 96-well plate (5 × 10^3 cells/well), and finally incubated for 18 h at 37 °C for cell adherence.
For cytotoxicity testing, we used the (3-(4,5-dimethylthiazol-2-yl)-2,5-diphenyltetrazolium bromide (MTT) assay, performed as described in the literature. The HepG2 cell line was incubated with 20 µL of the compounds in different concentrations (200–25 µg/mL) for 24 h in an atmosphere of 5% CO2 at 37 °C.
For the MTT assay, which evaluates mitochondrial viability, 20 µL of MTT solution (5 mg/mL) was added, and the plates were incubated for an additional 3 h. After incubation, the supernatant was carefully removed from the wells, followed by addition of 100 µL DMSO with thorough mixing. Optical densities at 570 and 630 nm (background) were determined by an ELISA reader.
Cell viability was expressed as the percentage of control absorbance obtained in untreated cells after subtracting the absorbance from appropriate background. Lastly, the minimum lethal dose for 50% of the cells (MLD50) was determined as previously described in the literature. The ratio between MLD50 and drug activity (IC50) in vitro was used to determine the selectivity index (SI).

The test system of series [3] is Plasmodium falciparum chloroquine-resistant W2 clone. Briefly: [3H]-hypoxanthine incorporation assay on P. falciparum-infected erythrocytes. To be noted: read-out: IC50 Plasmodium Falciparum Hypoxanthine. The procedure:
as §1, §2

Where [4] appears, read: Erythrocyte, W2 clone, 0.05% parasitemia, 1.5% hematocrit.
Setting [5] is: Erythrocyte, W2 clone, 1% parasitemia, 1% hematocrit.

A value given as a limit tells only on which side of the number the result lay.

Usually IC50 stands for the midpoint of a concentration-inhibition curve. `Cc1cc(N2CCOCC2)n2nc(C(F)(F)F)nc2n1` [Compound 19]: the IC50 in series [1] (setting [4]) and in series [3] (setting [5]) was over 174 µM each time. Further, the “activity class against P. falciparum” value in series [1] (W2 clone) is recorded as “Inactive”. Moreover, the “MDL50 HepG2” value in series [2] is reported as over 697 µM.
Turning to `Cc1cc(Nc2ccccc2)n2nc(C(F)(F)F)nc2n1` [Compound 6, 5-Methyl-7-phenylamine-2-(trifluoromethyl)[1,2,4]triazolo[1,5-a]pyrimidine], the IC50 was found to be 3 ± 2 µM in series [1] (setting [4]) and 10.2 ± 5 µM in series [3] (setting [5]). Further, in series [2], the “MDL50 HepG2” value is over 682 µM.
Regarding `CCN(CC)CCCC(C)Nc1ccnc2cc(Cl)ccc12` (centres unmarked) [Chloroquine, reference compound], the IC50 in series [1] (W2, Erythrocyte) came to 0.22 µM; in series [3] (W2, Erythrocyte) it was 0.23 µM. The “MDL50 HepG2” value in series [2] came to 490 µM.
In the case of `CCN(CC)CCCC(C)Nc1cc(C)nc2ncnn12` (centres unmarked) [Compound 28, 5-Methyl-7-N'-(N,N-diethylpentane-1,4-diamine)[1,2,4]triazolo[1,5-a]pyrimidine], the IC50 in series [1] (setting [4]) and in series [3] (setting [5]) was over 172 µM throughout. Also, the “activity class against P. falciparum” value in series [1] (W2 clone) was “Inactive”. Besides, the “MDL50 HepG2” value in series [2] is on record as over 689 µM.
Turning to `Cc1cc(Nc2c(F)cccc2F)n2nc(C(F)(F)F)nc2n1` [Compound 10, 7-(2,6-Difluorophenylamine)-5-methyl-2-(trifluoromethyl)[1,2,4]triazolo[1,5-a]pyrimidine], the IC50 is over 69.9 µM in series [1] (setting [4]) and over 149 µM in series [3] (setting [5]). In series [1] (W2 clone), the “activity class against P. falciparum” value was “Inactive”. Moreover, in series [2], the “MDL50 HepG2” value came to 337 µM.
With `COc1cc(Nc2cc(C)nc3nc(C(F)(F)F)nn23)cc(OC)c1` [Compound 12, 7-(3,5-Dimethoxyphenylamine)-5-methyl-2-(trifluoromethyl)[1,2,4]triazolo[1,5-a]pyrimidine], the IC50 in series [1] (setting [4]) turned out to be 2.5 ± 0.05 µM; in series [3] (setting [5]), 0.36 ± 0.1 µM. The “MDL50 HepG2” value in series [2] amounted to 498 µM.
Taken in the same sequence, the figures for `Cc1cc(Nc2cc(Cl)cc(Cl)c2)n2nc(C(F)(F)F)nc2n1` [Compound 13, 7-(3,5-Dichlorophenylamine)-5-methyl-2-(trifluoromethyl)[1,2,4]triazolo[1,5-a]pyrimidine] were 1.47 ± 0.11 µM, 0.83 ± 0.58 µM and 320 µM.
Taken in the same sequence, the figures for `Cc1cc(Nc2ccc(C(F)(F)F)cc2)n2nc(C)nc2n1` [Compound 16, 2,5-Dimethyl-7-(4-(trifluoromethyl)phenylamine)-[1,2,4]triazolo[1,5-a]pyrimidine] were 0.3 µM, 0.4 ± 0.06 µM and 446 µM.
For the compound `Cc1cc(N2CCN(C)CC2)n2nc(C(F)(F)F)nc2n1` [Compound 20, 5-Methyl-7-(4-methylpiperazin-1-yl)-2-(trifluoromethyl)[1,2,4]triazolo[1,5-a]pyrimidine], the IC50 in series [1] (setting [4]) is 39 ± 17 µM; in series [3] (setting [5]), 57 ± 13 µM. Further, the “activity class against P. falciparum” value in series [1] (W2 clone) is “Inactive”. Moreover, in series [2], the “MDL50 HepG2” value is reported as over 666 µM.
As for `Cc1cc(-n2cccc2)n2nc(C(F)(F)F)nc2n1` [Compound 27, 5-Methyl-7-(1H-pyrrol-1-yl)-2-(trifluoromethyl)[1,2,4]triazolo[1,5-a]pyrimidine], the IC50 turned out to be 97.4 ± 22.5 µM in series [1] (setting [4]) and 78.7 ± 7.49 µM in series [3] (setting [5]). In addition, the “activity class against P. falciparum” value in series [1] (W2 clone) is reported as “Inactive”. Besides, the “MDL50 HepG2” value in series [2] is given as over 749 µM.
Taken in the same sequence, the figures for `Cc1cc(Nc2ccccn2)n2nc(C(F)(F)F)nc2n1` [Compound 22, 5-Methyl-7-(pyridin-2-ylamine)-2-(trifluoromethyl)[1,2,4]triazolo[1,5-a]pyrimidine] were over 156 µM, over 170 µM, “Inactive” and 394 µM.
In the case of `Cc1cc(Nc2cccc3ccccc23)n2nc(C(F)(F)F)nc2n1` [Compound 4, 5-Methyl-7-(naphthalen-1-ylamine)-2-(trifluoromethyl)[1,2,4]triazolo[1,5-a]pyrimidine], the IC50 in series [1] (setting [4]) came out at 2.2 µM. Besides, the “MDL50 HepG2” value in series [2] was determined as 326 µM.
Regarding `Cc1cc(-n2cccn2)n2nc(C(F)(F)F)nc2n1` [Compound 24, 5-Methyl-7-(1H-pyrazol-1-yl)-2-(trifluoromethyl)[1,2,4]triazolo[1,5-a]pyrimidine], in series [1] (setting [4]), the IC50 was 2.1 µM. Besides, the “MDL50 HepG2” value in series [2] is recorded as over 746 µM.
Consider `CCN(CC)CCCC(C)Nc1cc(C)nc2nc(C(F)(F)F)nn12` (centres unmarked) [Compound 29, 5-Methyl-7-N'-(N,N-diethylpentane-1,4-diamine)-2-(trifluoromethyl)[1,2,4]triazolo[1,5-a]pyrimidine], for which the IC50 in series [1] (setting [4]) amounted to 73 ± 17 µM; in series [3] (setting [5]), 39.1 µM. In addition, in series [1] (W2 clone), the “activity class against P. falciparum” value is reported as “Inactive”. In series [2], the “MDL50 HepG2” value was over 558 µM.
Taken in the same sequence, the figures for `Cc1cc(-n2cncn2)n2nc(C(F)(F)F)nc2n1` [Compound 26, 5-Methyl-7-(1H-1,2,4-triazol-1-yl)-2-(trifluoromethyl)[1,2,4]triazolo[1,5-a]pyrimidine] were 29.7 µM, 33.5 ± 14.9 µM, “Inactive” and under 93 µM.
On to `Cc1cc(Nc2cccc(Cl)c2)n2nc(C(F)(F)F)nc2n1` [Compound 7, 7-(3-Chlorophenylamine)-5-methyl-2-(trifluoromethyl)[1,2,4]triazolo[1,5-a]pyrimidine], for which the IC50 in series [1] (setting [4]) is 1.83 ± 1.1 µM; in series [3] (setting [5]), 1.22 µM. The “MDL50 HepG2” value in series [2] is 373 µM.
Taken in the same sequence, the figures for `Cc1cc(Nc2ccc(Cl)c(Cl)c2)n2nc(C(F)(F)F)nc2n1` [Compound 8, 7-(3,4-Dichlorophenylamine)-5-methyl-2-(trifluoromethyl)[1,2,4]triazolo[1,5-a]pyrimidine] were 0.55 ± 0.66 µM, 0.11 ± 0.05 µM and over 552 µM.
As for `Cc1cc(NC2CCCCC2)n2nc(C(F)(F)F)nc2n1` [Compound 18, 7-Cyclohexylamine-5-methyl-2-(trifluoromethyl)[1,2,4]triazolo[1,5-a]pyrimidine], the values for the IC50 in series [1] (setting [4]) and in series [3] (setting [5]) were 8.69 ± 0.46 µM and 10 µM, respectively. For the same compound, the “MDL50 HepG2” value in series [2] came out at 515 µM.
Taken in the same sequence, the figures for `FC(F)(F)c1cc(Nc2cc(Cl)cc(Cl)c2)n2nc(C(F)(F)F)nc2n1` [Compound 17, 7-(3,5-Dichlorophenylamine)-2,5-bis(trifluoromethyl)[1,2,4]triazolo[1,5-a]pyrimidine] were 12.3 µM, 23.4 µM and 269 µM.
Taken in the same sequence, the figures for `Cc1cc(Nc2ccc(Cl)cc2Cl)n2nc(C(F)(F)F)nc2n1` [Compound 9, 7-(2,4-Dichlorophenylamine)-5-methyl-2-(trifluoromethyl)[1,2,4]triazolo[1,5-a]pyrimidine] were 2.7 ± 2.21 µM, 3.32 ± 1.1 µM and 320 µM.
On to `Cc1cc(-n2ccnc2)n2nc(C(F)(F)F)nc2n1` [Compound 25, 7-(1H-Imidazol-1-yl)-5-methyl-2-(trifluoromethyl)[1,2,4]triazolo[1,5-a]pyrimidine], for which the IC50 was found to be 21 ± 2 µM in series [1] (setting [4]) and 15 ± 0.7 µM in series [3] (setting [5]). Also, in series [2], the “MDL50 HepG2” value is under 93 µM.
Consider `Cc1cc(Nc2ccc3ccccc3c2)n2nc(C(F)(F)F)nc2n1` [Compound 5, 5-Methyl-7-(naphthalen-2-ylamine)-2-(trifluoromethyl)[1,2,4]triazolo[1,5-a]pyrimidine], for which the IC50 in series [1] (setting [4]) was found to be 0.023 ± 0.002 µM. Besides, in series [2], the “MDL50 HepG2” value came out at 425 µM.
